The source made the active and inactive calls. The rule behind the calls is not given here.
molecular target: aminoglycoside 2''-nucleotidyltransferase ANT(2'')-Ia (Klebsiella pneumoniae); test: growth inhibition of ANT(2'')-Ia E. coli with gentamicin, ANT(2'')-Ia inhibitor project, OD600 growth (AID 1159619); details: E. coli over-expressing ANT(2'')-Ia with gentamicin, 18 h

| AC50 [µM] | outcome | Structure (SMILES) |
| --- | --- | --- |
| 66 |  | CS(=O)(=O)CCNCc1ccc(-c2ccc3ncnc(Nc4ccc(OCc5ccccc5)c(C(F)(F)F)c4)c3c2)o1 |
|  | inactive | Nc1nccc(C#Cc2cncnc2Nc2ccc(OCc3cccc(F)c3)c(Cl)c2)n1 |
|  | inactive | CN(C)CCCn1c(-c2nonc2N)nc2cnccc21 |
|  | inactive | c1ccc(Oc2ccc(Nc3ncc(-c4ccccc4)o3)cc2)cc1 |
|  | inactive | COc1ccc(-c2cc(-c3cn[nH]c3-c3ccccn3)ccn2)cc1 |
| 58.8 |  | CS(=O)(=O)CCNCc1ccc(-c2ccc3ncnc(Nc4ccc(OCc5cccc(F)c5)c(C(F)(F)F)c4)c3c2)o1 |
|  | inactive | COC(=O)Nc1nc2ccc(Oc3ccc(NC(=O)Nc4cccc(Br)c4)cc3)cc2[nH]1 |
|  | inactive | Cc1cc(O)cc(C)c1/C=C/c1cncc(-c2nn[nH]n2)c1 |
|  | inactive | NCc1ccc(-c2nc(-c3ccc(Cl)c(O)c3)c(-c3ccncc3)[nH]2)cc1 |
|  | inactive | COc1cccc(-n2ncc3c(N/N=C/c4ccc(C)cc4)ncnc32)c1 |
|  | inactive | Nc1nonc1-c1nc2cnccc2n1C1CCCCC1 |
| 59.1 |  | CN(C)CCOc1ccc(-c2nc(-c3ccc4c(c3)CC/C4=N\O)c(-c3ccncc3)[nH]2)cc1 |
|  | inactive | O=S(=O)(CCNCc1ccc(-c2ccc3ncnc(Nc4ccc(OCc5cccc(F)c5)c(Cl)c4)c3c2)o1)c1ccccc1 |
|  | inactive | Nc1nc(-c2ccc(F)cc2)c(-c2ccc3ncccc3n2)s1 |
|  | inactive | Cc1ccc(NC(=O)CC2CC2)cc1-c1ccc(C(=O)NCC2CC2)cc1 |
|  | inactive | Cc1cc(O)cc(C)c1/C=C/c1cncc(C(=O)OC(C)(C)C)c1 |
| 66.1 |  | COc1cc2ncn(-c3cc(OCc4ccccc4C(F)(F)F)c(C(=O)N(C)C)s3)c2cc1OC |
|  | inactive | Cc1cccc(Nc2ncc(-c3ccccc3)o2)c1 |
|  | inactive | CCS(=O)(=O)c1ccc(OC)c(Nc2nccc(N(C)c3ccc4c(C)[nH]nc4c3)n2)c1 |
|  | inactive | CCCN1CCCC(c2ccc(Nc3nc(Nc4cc(F)ccc4C(N)=O)c4cc[nH]c4n3)c(OC)c2)C1 (stereo not given) |
|  | inactive | Nc1ncnc2occ(-c3ccc(NC(=O)Nc4cc(C(F)(F)F)cc(C(F)(F)F)c4)cc3)c12 |
|  | inactive | Nc1nccc(-c2c(-c3ccc(F)cc3)nn3cc(C(F)(F)F)ccc23)n1 |
|  | inactive | CCn1c(-c2nonc2N)nc2c(C#CC(C)(C)O)nc(O[C@@H](CN)c3ccccc3)cc21 |
|  | inactive | O=C(O[C@H]1CN[C@H](C#Cc2cc3ncnc(Nc4ccc(Cc5ccccc5)cc4)c3s2)C1)N1CCOCC1 |

| AC50 [µM] | outcome | Structure (SMILES) |
| --- | --- | --- |
|  | inactive | N#Cc1ccc(Oc2nccc(-c3c(-c4ccc(F)cc4)ncn3C3CCNCC3)n2)cc1 |
|  | inactive | CC(=Nc1ccc(S(N)(=O)=O)cc1)c1c(O)[nH]c2ccccc12 |
|  | inactive | NS(=O)(=O)c1ccc(-c2ccc3c(NC(=O)C4CC4)n[nH]c3c2)cc1 |
|  | inactive | CC(C)=Cc1cccc2[nH]c(O)c(N=Nc3ccc(S(N)(=O)=O)cc3)c12 |
|  | inactive | c1cc(-c2cnn3nc(N4CCOCC4)ccc23)nc(NC2CC2)n1 |
|  | inactive | FC(F)(F)c1cccc(-c2nn3ncccc3c2-c2ccnc(Nc3ccc4c(c3)OCCO4)n2)c1 |
|  | inactive | O=C(Nc1n[nH]c2nc(-c3ccc(O)cc3)c(Br)cc12)C1CC1 |
|  | inactive | COC(=O)Nc1nc2ccc(Oc3ccc(NC(=O)Nc4cccc(Cl)c4)cc3)cc2[nH]1 |
| 71 |  | CCn1c(-c2nonc2N)nc2cnc(Oc3cccc(NC(=O)c4ccc(OCCN5CCOCC5)cc4)c3)cc21 |
|  | inactive | c1ccc(Nc2ncc(-c3ccccc3)o2)cc1 |
|  | inactive | CS(=O)(=O)CCNCc1ccc(-c2ccc3ncnc(Nc4ccc(OCc5ccccc5)cc4)c3c2)o1 |
|  | inactive | CC1=C(C(=O)Nc2ccc3[nH]ncc3c2)C(c2ccc(Cl)c(Cl)c2)CC(=O)N1 (stereo not given) |
|  | inactive | COc1cc2c(cc1Nc1nc(N3CCc4ccccc43)c3cc[nH]c3n1)N(C(=O)CN(C)C)CC2 |
|  | inactive | Fc1cccc(COc2ccc(Nc3ncnc4sc(-c5cccs5)cc34)cc2Cl)c1 |
|  | inactive | COc1cc(Nc2nccc(Nc3ccc4c(C)[nH]nc4c3)n2)cc(OC)c1OC |
|  | inactive | Cn1c(-c2nonc2N)nc2cnccc21 |
|  | inactive | CCS(=O)(=O)c1ccc(OC)c(Nc2ncc(-c3cccc(-c4ccccc4F)c3)o2)c1 |
|  | inactive | Nc1ncnc2occ(-c3ccc(NC(=O)Nc4cccc(C(F)(F)F)c4)cc3)c12 |
|  | inactive | COc1cc(/C=N/Nc2ncnc3[nH]ncc23)ccc1O |
|  | inactive | CCn1c(-c2nonc2N)nc2ccccc21 |
|  | inactive | O=C1Nc2ccc(-c3cccnc3)cc2C1=Cc1cc(Br)c(O)c(Br)c1 |
|  | inactive | CCS(=O)(=O)c1ccc(OC)c(Nc2ncc(-c3cccc(OC)c3)o2)c1 |
|  | inactive | COc1ccc2ncn(-c3cc(O[C@H](C)c4ccccc4Cl)c(C(N)=O)s3)c2c1 |
|  | inactive | COC(=O)c1ccc2c(c1)C(=Cc1cc(Br)c(O)c(Br)c1)C(=O)N2 |

| AC50 [µM] | outcome | Structure (SMILES) |
| --- | --- | --- |
|  | inactive | NC(=O)c1ccc(Oc2nccc(-c3c(-c4ccc(F)cc4)ncn3C3CCNCC3)n2)cc1 |
|  | inactive | CC(C)(C)c1ccc(Oc2nccc(-c3c(-c4ccc(F)cc4)ncn3C3CCNCC3)n2)cc1 |
|  | inactive | Fc1ccc(Nc2nccc(-c3c(-c4ccc(C(F)(F)F)cc4)nn4ncccc34)n2)cc1F |
|  | inactive | CCc1cccc(NC(=O)Nc2ccc(Oc3ccc4nc(NC(=O)OC)[nH]c4c3)cc2)c1 |
|  | inactive | COc1cc(Nc2ncc(-c3ccccc3)o2)cc(OC)c1OC |
|  | inactive | COC(=O)Nc1nc2ccc(Sc3ccc(NC(=O)Nc4cc(C(F)(F)F)ccc4F)cc3)cc2[nH]1 |
| 45.2 |  | C[C@@H](Oc1cc(-n2cnc3ccc(OCC4CCN(C)CC4)cc32)sc1C(N)=O)c1ccccc1C(F)(F)F |
|  | inactive | CN(c1ccc(NC(=O)Nc2ccc(OC(F)(F)F)cc2)cc1)c1ccnc(Nc2cccc(S(N)(=O)=O)c2)n1 |
|  | inactive | Cc1cc(Cl)cc2c(N=Nc3ccc(S(N)(=O)=O)cc3)c(O)[nH]c12 |
|  | inactive | Cn1cc(C=C2C(=O)Nc3cccnc32)c2ccccc21 |
|  | inactive | COc1cc2ncn(-c3cc(OCc4ccccc4C(F)(F)F)c(C(N)=O)s3)c2cc1OC |
| 56.3 |  | CS(=O)(=O)CCNCc1ccc(-c2ccc3ncnc(Nc4ccc(OCc5ccccc5)c(Br)c4)c3c2)o1 |
|  | inactive | O=C1Nc2ccccc2/C1=C1\CCc2cc(O)ccc21 |
| 67 |  | COc1ccc(-c2nn3ncccc3c2-c2ccnc(Nc3ccc4c(c3)OCCO4)n2)cc1 |
|  | inactive | CCc1nccc2c1nc(-c1nonc1N)n2CC |
|  | inactive | CNC(=O)c1cc(-c2ccc(F)cc2)cc(-c2ccc(S(=O)(=O)N3CCCC3)cc2)c1N |
|  | inactive | N#Cc1c(NC(=O)c2ccc(F)cc2)sc2c1CCCC2 |
|  | inactive | CCN1CCC(C(=O)Nc2n[nH]c3nnc(-c4cccc(F)c4F)cc23)CC1 |
|  | inactive | Clc1ccc(CNc2nccc(-c3cnn4ncccc34)n2)cc1 |
|  | inactive | COc1cc(C)c(NC(=O)CN(C)C)cc1Nc1nc(Nc2cccc(F)c2C(N)=O)c2cc[nH]c2n1 |
|  | inactive | COc1cc(N2CCN(C(C)C)CC2)ccc1Nc1nc(Nc2cccc3ncccc23)c2cc[nH]c2n1 |
|  | inactive | COC(=O)Nc1nc2ccc(S(=O)(=O)c3ccc(NC(=O)Nc4cc(C(F)(F)F)ccc4F)cc3)cc2[nH]1 |
|  | inactive | CS(=O)(=O)CCN(CC#N)Cc1ccc(-c2ccc3ncnc(Nc4ccc(OCc5cccc(F)c5)c(Cl)c4)c3c2)o1 |
| 26.1 |  | CCN1CCC(CC(=O)Nc2n[nH]c3nc(-c4cccs4)c(Br)cc23)CC1 |

| AC50 [µM] | outcome | Structure (SMILES) |
| --- | --- | --- |
|  | inactive | COc1ccc(-c2nn3ncccc3c2-c2ccnc(Nc3cccc(C(F)(F)F)c3)n2)cc1 |
|  | inactive | COC(=O)Nc1nc2ccc(Oc3ccc(NC(=O)Nc4ccccc4)cc3)cc2[nH]1 |
|  | inactive | NS(=O)(=O)c1ccc(N=Nc2c(O)[nH]c3ccc(C(=O)NCCc4cnc[nH]4)cc23)cc1 |
|  | inactive | CS(=O)(=O)CCNCc1ccoc1-c1ccc2ncnc(Nc3ccc(OCc4ccccc4)cc3)c2c1 |
|  | inactive | CCn1c(-c2nonc2N)nc2ccc(F)cc21 |
|  | inactive | COc1ccc(COc2ccc(Cc3cnc(N)nc3N)cc2OC)cc1 |
| 68.5 |  | CC1=C(C(=O)Nc2ccc3[nH]ncc3c2)C(c2ccc3ccccc3c2)CC(=O)N1 (stereo not given) |
|  | inactive | CS(=O)(=O)CCNCc1cc(-c2cc3c(Nc4ccc(OCc5cccc(F)c5)c(Cl)c4)ncnc3s2)cs1 |
|  | inactive | C[C@@H](Oc1cc(-n2cnc3ccc(OC[C@@H](O)CO)cc32)sc1C(N)=O)c1ccccc1Cl |
|  | inactive | CCOc1nccc2c1nc(-c1nonc1N)n2CC |
|  | inactive | CNC(=O)c1cncc(/C=C/c2ccccc2C)c1 |
|  | inactive | NS(=O)(=O)c1ccc(Nc2cc(-c3ccc(O)c(F)c3)[nH]n2)cc1 |
|  | inactive | CCN1CCC(CC(=O)Nc2n[nH]c3nnc(-c4cccc(F)c4F)cc23)CC1 |
|  | inactive | CN1CCC(C(=O)Nc2n[nH]c3nc(-c4ccc(O)cc4)c(Br)cc23)CC1 |
|  | inactive | FC(F)(F)CNc1nccc(-c2cnn3ncccc23)n1 |
|  | inactive | CC(C)(CO)CNC(=O)c1ccc2[nH]c(O)c(N=Nc3ccc(S(N)(=O)=O)cc3)c2c1 |
|  | inactive | Nc1nc(-c2cccc(Cl)c2)c(-c2ccc3ncccc3n2)s1 |
|  | inactive | NS(=O)(=O)c1cccc(Nc2cc(-c3ccc(F)cc3)[nH]n2)c1 |
| 68 |  | O=S1CCN(Cc2ccc(-c3ccc4ncnc(Nc5ccc(OCc6ccccc6)c(Cl)c5)c4c3)o2)CC1 |
|  | inactive | Oc1cccc(-c2nc(-c3ccccc3)[nH]c2-c2ccncc2)c1 |
|  | inactive | CNC(=O)c1cncc(/C=C/c2ccccc2Cl)c1 |
|  | inactive | Cc1ccc(C(=O)NC2CC2)cc1-c1ccc2[nH]ncc2c1 |
|  | inactive | COc1ccc(CNC(=O)c2ccc(-c3cc(-c4nnc(C)o4)ccc3C)cc2)cc1 |
